Source: PubChem BioAssay (NCI)
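A five-concentration, 48-hour dose response in 96-well plates underlies each endpoint, interpolated linearly between surrounding concentrations. TGI marks complete inhibition of growth.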

Tests used:
Experiment in all cases: inhibition of tumour cell growth, NCI panel, 48 h
[1] = system: SNB-78 CNS
[2] = system: HL-60(TB) leukemia
[3] = system: A498 renal
[4] = system: RXF-631 renal
[5] = system: IGROV1 ovarian
[6] = system: RXF 393 renal
[7] = system: LOX IMVI melanoma
[8] = system: HCT-116 colon
[9] = system: OVCAR-4 ovarian
[10] = system: CAKI-1 renal
[11] = system: COLO 205 colon
[12] = system: KM20L2 colon
[13] = system: M14 melanoma
[14] = system: DLD-1 colon
[15] = system: NCI-H460 lung
[16] = system: UACC-257 melanoma
[17] = system: NCI-H522 lung
[18] = system: NCI-H226 lung
[19] = system: ACHN renal
[20] = system: SNB-19 CNS
[21] = system: TK-10 renal
[22] = system: 786-0 renal
[23] = system: HCT-15 colon
[24] = system: OVCAR-8 ovarian
[25] = system: SF-539 CNS
[26] = system: U251 CNS
[27] = system: OVCAR-3 ovarian
[28] = system: A549 NSCLC
[29] = system: HOP-18 NSCLC
[30] = system: HCC-2998 colon
[31] = system: SN12C renal
[32] = system: HOP-92 NSCLC
[33] = system: HOP-62 NSCLC
[34] = system: CCRF-CEM leukemia
[35] = system: KM12 colon
[36] = system: SW-620 colon
[37] = system: SK-OV-3 ovarian
[38] = system: K-562 leukemia
[39] = system: MALME-3M melanoma
[40] = system: SK-MEL-2 melanoma
[41] = system: OVCAR-5 ovarian
[42] = system: SF-268 CNS
[43] = system: HT29 colon
[44] = system: DMS 114 small cell lung
[45] = system: SK-MEL-5 melanoma
[46] = system: UO-31 renal
[47] = system: M19-MEL melanoma
[48] = system: SF-295 CNS
[49] = system: SK-MEL-28 melanoma
[50] = system: SNB-75 CNS
[51] = system: DMS 273 small cell lung
[52] = system: NCI-H23 lung
[53] = system: UACC-62 melanoma
[54] = system: EKVX NSCLC
[55] = system: LXFL 529 NSCLC
[56] = system: SR leukemia
[57] = system: RPMI-8226 leukemia
[58] = system: MOLT-4 leukemia

Structure (SMILES): C[Si](C)(C)c1ccc(CC2(Cc3ccc([Si](C)(C)C)cc3)CCNC2)cc1
- TGI [1]: 8.87 µM
- TGI [2]: > 100 µM
- TGI [3]: 2.91 µM
- TGI [4]: 5.36 µM
- TGI [5]: 7.12 µM
- TGI [6]: 3.14 µM
- TGI [7]: 3.19 µM
- TGI [8]: 3.17 µM
- TGI [9]: 4.52 µM
- TGI [10]: 5.29 µM
- TGI [11]: 3.19 µM
- TGI [12]: 3.93 µM
- TGI [13]: 3.31 µM
- TGI [14]: 6.87 µM
- TGI [15]: 3.73 µM
- TGI [16]: 5.41 µM
- TGI [17]: 3.28 µM
- TGI [18]: 3.34 µM
- TGI [19]: 9.37 µM
- TGI [20]: 13.7 µM
- TGI [21]: 35.5 µM
- TGI [22]: 3.38 µM
- TGI [23]: 4.86 µM
- TGI [24]: 3.35 µM
- TGI [25]: 10.4 µM
- TGI [26]: 3.02 µM
- TGI [27]: 3.93 µM
- TGI [28]: 5.22 µM
- TGI [29]: 9.12 µM
- TGI [30]: 4.43 µM
- TGI [31]: 3.11 µM
- TGI [32]: 3.18 µM
- TGI [33]: 6 µM
- TGI [34]: 48.1 µM
- TGI [35]: 3.62 µM
- TGI [36]: 3.38 µM
- TGI [37]: 3.8 µM
- TGI [38]: 84.6 µM
- TGI [39]: 11.6 µM
- TGI [40]: 3.41 µM
- TGI [41]: 15.4 µM
- TGI [42]: 4.71 µM
- TGI [43]: 4.08 µM
- TGI [44]: 3.87 µM
- TGI [45]: 3.35 µM
- TGI [46]: 5.9 µM
- TGI [47]: 3.64 µM
- TGI [48]: 6.86 µM
- TGI [49]: 5.05 µM
- TGI [50]: 7.67 µM
- TGI [51]: 3.42 µM
- TGI [52]: 3.47 µM
- TGI [53]: 3.96 µM
- TGI [54]: 18.9 µM
- TGI [55]: 4.79 µM

Structure (SMILES): O=C(O/N=C1/CCC/C1=C\c1ccccc1)c1ccc([N+](=O)[O-])cc1
- TGI [1]: > 100 µM
- TGI [2]: > 100 µM
- TGI [3]: > 100 µM
- TGI [4]: > 100 µM
- TGI [5]: > 100 µM
- TGI [6]: > 100 µM
- TGI [7]: > 100 µM
- TGI [8]: > 100 µM
- TGI [9]: > 100 µM
- TGI [10]: > 100 µM
- TGI [11]: > 100 µM
- TGI [12]: > 100 µM
- TGI [13]: > 100 µM
- TGI [14]: > 100 µM
- TGI [15]: > 100 µM
- TGI [16]: > 100 µM
- TGI [17]: > 100 µM
- TGI [18]: > 100 µM
- TGI [19]: > 100 µM
- TGI [21]: > 100 µM
- TGI [22]: > 100 µM
- TGI [23]: > 100 µM
- TGI [24]: > 100 µM
- TGI [25]: > 100 µM
- TGI [26]: > 100 µM
- TGI [27]: > 100 µM
- TGI [28]: > 100 µM
- TGI [29]: > 100 µM
- TGI [30]: 25.7 µM
- TGI [31]: > 100 µM
- TGI [32]: > 100 µM
- TGI [56]: > 100 µM
- TGI [33]: > 100 µM
- TGI [34]: > 100 µM
- TGI [35]: > 100 µM
- TGI [36]: > 100 µM
- TGI [37]: > 100 µM
- TGI [38]: > 100 µM
- TGI [39]: > 100 µM
- TGI [40]: > 100 µM
- TGI [57]: > 100 µM
- TGI [41]: > 100 µM
- TGI [42]: > 100 µM
- TGI [58]: > 100 µM
- TGI [43]: > 100 µM
- TGI [44]: > 100 µM
- TGI [45]: > 100 µM
- TGI [46]: 74.9 µM
- TGI [47]: > 100 µM
- TGI [48]: > 100 µM
- TGI [49]: > 100 µM
- TGI [50]: 91.3 µM
- TGI [51]: > 100 µM
- TGI [52]: > 100 µM
- TGI [53]: > 100 µM
- TGI [54]: > 100 µM
- TGI [55]: > 100 µM
